Results as given in PMC12154458, “High-Throughput Screens of Repurposing Hub and DOS Chemical Libraries Reveal Compounds with Novel and Potent Inhibitory Activity Against the Essential Non-Neuronal Acetylcholinesterase of Schistosoma mansoni (SmTAChE)” (International Journal of Molecular Sciences, 2025).
Where two headings read alike, the source gives them in different places.

Key:
rSmTAChE [1] = molecular target: T1, rSmTAChE (Schistosoma mansoni, UniProt A0A3Q0KMM5); test: biochemical; details: for inhibition at 20 µM: read-out: rSmTAChE HTS Inhibition (Ave, %)
rSmTAChE [2] = molecular target: T1, rSmTAChE; assay type: biochemical
[3] = molecular target: recombinant human acetylcholinesterase, rHsAChE (Homo sapiens, UniProt P22303); test: biochemical
[4] = read-out: qAC50 (IC50), rHsAChE
[5] = read-out: qAC50 (IC50), rSmTAChE
[6] = Table 2, DOS-A library, Inactive = inactive at the maximum tested concentration (40 µM), read-out: IC50 (µM) rHsAChE
[7] = Table S4, DOS-A (IC50 values; qAC50), read-out: rHsAChE qAC50
[8] = dose response curve classification, Table S4, DOS-A
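Wherever Inhibition (%) (Average) is given: mostly 20 µM final but a few compounds at 5 or 10 µM.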
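Wherever Inhibition (%) Replicate A is given: mostly 20 µM final but a few compounds at 5 or 10 µM.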
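Wherever Inhibition (%) Replicate B is given: mostly 20 µM final but a few compounds at 5 or 10 µM.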

Chain of recombinant human acetylcholinesterase, rHsAChE (P22303 32-614): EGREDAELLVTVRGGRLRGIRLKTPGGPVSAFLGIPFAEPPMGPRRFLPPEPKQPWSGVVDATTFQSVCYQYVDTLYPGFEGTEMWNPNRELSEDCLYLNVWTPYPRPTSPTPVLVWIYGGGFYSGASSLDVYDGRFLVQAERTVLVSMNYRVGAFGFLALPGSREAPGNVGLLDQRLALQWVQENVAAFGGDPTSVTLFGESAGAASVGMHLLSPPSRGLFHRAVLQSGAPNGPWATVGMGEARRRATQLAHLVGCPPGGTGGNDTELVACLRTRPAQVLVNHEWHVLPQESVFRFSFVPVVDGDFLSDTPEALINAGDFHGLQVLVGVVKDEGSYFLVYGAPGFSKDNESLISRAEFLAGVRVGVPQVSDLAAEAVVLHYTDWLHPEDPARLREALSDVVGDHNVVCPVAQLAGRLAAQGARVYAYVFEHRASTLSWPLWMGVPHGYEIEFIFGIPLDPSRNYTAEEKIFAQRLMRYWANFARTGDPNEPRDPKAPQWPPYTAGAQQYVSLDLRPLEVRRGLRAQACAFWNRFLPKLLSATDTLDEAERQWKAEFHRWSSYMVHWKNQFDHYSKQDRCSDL
T1 sequence (A0A3Q0KMM5 27-661 limits assumed): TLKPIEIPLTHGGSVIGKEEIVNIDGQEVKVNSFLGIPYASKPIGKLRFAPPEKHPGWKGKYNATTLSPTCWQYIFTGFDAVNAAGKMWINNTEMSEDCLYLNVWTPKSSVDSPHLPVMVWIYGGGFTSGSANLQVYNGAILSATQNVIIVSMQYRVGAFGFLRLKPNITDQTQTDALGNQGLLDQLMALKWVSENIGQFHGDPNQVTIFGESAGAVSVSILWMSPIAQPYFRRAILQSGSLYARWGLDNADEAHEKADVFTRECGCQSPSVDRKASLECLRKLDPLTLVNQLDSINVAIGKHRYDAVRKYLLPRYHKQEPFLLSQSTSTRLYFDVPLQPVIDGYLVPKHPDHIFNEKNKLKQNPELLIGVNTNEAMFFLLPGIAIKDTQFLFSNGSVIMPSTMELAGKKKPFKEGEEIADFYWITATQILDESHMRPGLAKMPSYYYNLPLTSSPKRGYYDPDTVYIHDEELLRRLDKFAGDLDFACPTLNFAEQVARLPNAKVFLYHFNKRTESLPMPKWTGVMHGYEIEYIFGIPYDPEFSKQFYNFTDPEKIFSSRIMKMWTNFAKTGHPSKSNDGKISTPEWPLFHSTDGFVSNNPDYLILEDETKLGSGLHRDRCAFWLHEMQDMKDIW

| SMILES | Inhibition (%) (Average) (rSmTAChE [1]) | Inhibition (%) Replicate A (rSmTAChE [1]) | Inhibition (%) Replicate B (rSmTAChE [1]) | Data Mode (curve class), rSmTAChE (rSmTAChE [2]) | Data Mode (curve class), rHsAChE [3] | IC50 [3, 4] | IC50 (rSmTAChE [2]; [5]) | rSmTAChE Data Mode (rSmTAChE [2]) | rHsAChE Data Mode [3] | inhibition at 20 µM (rSmTAChE [1]) | SI (Hs/Sm) (rSmTAChE [2]) | IC50 [3, 6] | IC50 [3, 7] | rHsAChE Data Mode [3, 8] | IC50 (rSmTAChE [2]; read-out: rSmTAChE qAC50) |
| --- | --- | --- | --- | --- | --- | --- | --- | --- | --- | --- | --- | --- | --- | --- | --- |
| O=C(Nc1ccc(Cl)cc1)Nc1ccc(Cl)c(Cl)c1 [BRD-K25029121-001-05-8] | 85.20% | 84.59% | 85.82% | inactive | decreasing (weakly active) | > 38 µM | – | – | – | – | – | – | – | – | – |
| CCOc1nc2cccc(C(=O)OCc3oc(=O)oc3C)c2n1Cc1ccc(-c2ccccc2-c2noc(=O)[nH]2)cc1 [BRD-K25723200-001-03-5] | 67.00% | 73.36% | 60.64% | decreasing | decreasing (weakly active) | > 12 µM | 11.6 µM | – | – | – | – | – | – | – | – |
| COc1ccc(C(Cl)=C(c2ccc(OC)cc2)c2ccc(OC)cc2)cc1 [BRD-K27062708-001-23-1] | 64.11% | 62.61% | 65.61% | inactive | decreasing (weakly active) | > 38 µM | – | – | – | – | – | – | – | – | – |
| COc1ccc(NC(=O)Nc2ccc3c(c2)[C@@H]2C[C@H](CC(=O)NCc4ccc5c(c4)OCO5)O[C@@H](CO)[C@@H]2O3)cc1 [BRD-K27599706-001-01-0] | 78.59% | 80.15% | 77.03% | – | – | – | – | decreasing (weakly active) | decreasing (weakly active) | – | – | – | – | – | – |
| COc1ccccc1-c1cccc(-c2nc(C(=O)NCc3ccncc3)cc3c2[C@@H](CCO)N([S@+]([O-])C(C)(C)C)C3)c1 [BRD-K32310489-001-03-4] | 64.60% | 65.31% | 63.89% | – | – | – | – | decreasing (weakly active) | inactive | – | – | – | – | – | – |
| COc1cccc(C#Cc2ccc([C@@H]3[C@@H](C#N)N(C(=O)c4ccccn4)[C@H]3CO)cc2)c1 [BRD-K32986110-001-01-2, (2S,3R,4R)-4-(hydroxymethyl)-3-[4-[2-(3-methoxyphenyl)ethynyl]phenyl]-1-[oxo(2-pyridinyl)methyl]-2-azetidinecarbonitrile] | – | – | – | – | – | – | – | decreasing | – | 71.4% | 1.1 | 31.2 µM | 31.3 µM | decreasing | – |
| O=C(O)c1ccccc1Nc1ccc(CCc2ccc(Cl)c(Cl)c2)cc1 [BRD-K34657753-001-01-9] | 82.51% | 83.46% | 81.56% | decreasing | decreasing | 8.55 µM | 12.4 µM | – | – | – | – | – | – | – | – |
| C[C@H](NC(=O)C(C)(C)Oc1ccc(C(F)(F)F)cn1)[C@@H](Cc1ccc(Cl)cc1)c1cccc(C#N)c1 [BRD-K35169477-001-01-9] | 62.68% | 60.97% | 64.40% | inactive | decreasing (weakly active) | > 13.5 µM | – | – | – | – | – | – | – | – | – |
| CCCC(=O)Nc1ccc2c(c1)OC[C@@H](C)N(Cc1cc(-c3ccccc3)on1)C[C@@H](C)[C@H](OC)CN(C)C2=O [BRD-K35965314-001-01-7] | 67.01% | 68.51% | 65.51% | – | – | – | – | inactive | inactive | – | – | – | – | – | – |
| CC(C)n1cnc2c(NCCc3ccc(O)cc3)nc(-c3csc4ccccc34)nc21 [BRD-K36739687-001-03-0] | 68.06% | 70.28% | 65.85% | inactive | inactive | – | – | – | – | – | – | – | – | – | – |
| O=C(C[C@@H]1C[C@@H]2c3cc(NC(=O)NC4CCCC4)ccc3O[C@@H]2[C@H](CO)O1)NCc1ccc(Cl)cc1 [BRD-K38240817-001-01-4] | 84.65% | 85.52% | 83.79% | – | – | – | – | decreasing (weakly active) | decreasing (weakly active) | – | – | – | – | – | – |
| Cc1nc2sccn2c(=O)c1CCN1CCC(=C(c2ccc(F)cc2)c2ccc(F)cc2)CC1 [BRD-K40887525-001-23-5] | 80.73% | 82.03% | 79.42% | decreasing (weakly active) | decreasing | 10.9 µM | > 19.5 µM | – | – | – | – | – | – | – | – |
| CCOC(=O)C1=C(C)NC(C)=C(C(=O)OCC)C1c1ccccc1/C=C/C(=O)OC(C)(C)C [BRD-K43586850-001-02-9] | 95.79% | 92.71% | 98.87% | inactive | inactive | – | – | – | – | – | – | – | – | – | – |
| COCCOc1ccc2c(c1)ncn2-c1ccc2cccc(N3CCC(N)CC3)c2n1 [BRD-K43621685-001-03-3] | 79.32% | 80.31% | 78.32% | decreasing (weakly active) | decreasing | 20.7 µM | > 38 µM | – | – | – | – | – | – | – | – |
| CC#C[C@@H](CC(=O)O)c1ccc(OCc2cccc(-c3ccc(C(F)(F)F)cc3)c2)cc1 [BRD-K43802723-340-01-9] | 79.76% | 80.42% | 79.10% | decreasing | decreasing | 15.4 µM | 13.4 µM | – | – | – | – | – | – | – | – |
| O=C(C[C@@H]1C=C[C@@H](NC(=O)c2ccncc2)[C@H](CO)O1)Nc1ccc(-c2ccccc2)cc1 [BRD-K45095313-001-01-2] | 61.11% | 60.65% | 61.57% | – | – | – | – | inactive | inactive | – | – | – | – | – | – |
| COc1ccc(NC(=O)Nc2ccc3c(c2)[C@H]2C[C@@H](CC(=O)NCc4ccccn4)O[C@@H](CO)[C@H]2O3)cc1 [BRD-K46319090-001-01-4] | 89.33% | 88.58% | 90.08% | – | – | – | – | decreasing | inactive | – | – | – | – | – | 37.8 µM |
| C#C[C@]1(OC(C)=O)CC[C@H]2[C@@H]3CCC4=C[C@@H](OC(C)=O)CC[C@@H]4[C@H]3CC[C@@]21C [BRD-K46331928-001-05-8] | 94.91% | 95.51% | 94.31% | decreasing (weakly active) | inactive | – | > 38 µM | – | – | – | – | – | – | – | – |
| CCCCCCCCCCCCCCCC[N+](C)(C)C [BRD-K47079459-004-04-6] | 64.20% | 65.92% | 62.47% | decreasing | decreasing | 10.3 µM | 17 µM | – | – | – | – | – | – | – | – |
| CC(C)(C)[S+]([O-])N1Cc2cc(C(=O)NCCN3CCCC3)nc(-c3cccc(-c4ccc(C#N)cc4)c3)c2C1CCO (stereo not shown) [BRD-K49441594-001-01-4] | – | – | – | – | – | – | – | decreasing | – | 61.8% | 2.35 | 35.5 µM | 35.5 µM | decreasing | – |
| O=C(C[C@H]1C[C@H]2c3cc(NC(=O)Nc4ccc(C(F)(F)F)cc4)ccc3O[C@H]2[C@H](CO)O1)NC1CCCCC1 [BRD-K50094564-001-01-3] | 69.15% | 68.27% | 70.03% | – | – | – | – | decreasing (weakly active) | inactive | – | – | – | – | – | – |
| N#Cc1ccc(N2NC3=C(CCc4cc(C(=O)O)ccc43)[C@@H]2C2CCCC2)cc1Cl [BRD-K51041191-001-01-4] | 66.80% | 70.13% | 63.46% | decreasing (weakly active) | decreasing (weakly active) | > 38 µM | > 38 µM | – | – | – | – | – | – | – | – |
| O=C1[C@@H]2[C@H]3CC[C@H](C3)[C@@H]2C(=O)N1C[C@@H]1CCCC[C@H]1CN1CCN(c2nsc3ccccc23)CC1 [BRD-K51143828-003-03-1] | 77.24% | 79.39% | 75.09% | decreasing (weakly active) | inactive | – | > 38 µM | – | – | – | – | – | – | – | – |
| CC(C)Oc1ccc(-c2nn([C@@H](C)c3oc4ccc(F)cc4c(=O)c3-c3cccc(F)c3)c3ncnc(N)c23)cc1F [BRD-K52579889-001-01-9] | 65.60% | 66.50% | 64.70% | decreasing (weakly active) | inactive | – | > 38 µM | – | – | – | – | – | – | – | – |
| CCc1nc(-c2cccc(C)c2)c(-c2ccnc(NC(=O)c3ccccc3)c2)s1 [BRD-K52751261-001-08-7] | 70.66% | 75.76% | 65.56% | inactive | decreasing (weakly active) | > 6.8 µM | – | – | – | – | – | – | – | – | – |
| COc1ccc(C#Cc2ccc3c(c2)O[C@H](CN(C)S(=O)(=O)c2ccccc2F)[C@@H](C)CN([C@H](C)CO)S3(=O)=O)cc1 [BRD-K53241408-001-01-7] | 74.07% | 75.51% | 72.63% | – | – | – | – | inactive | inactive | – | – | – | – | – | – |
